This is an account of results in the NIST ThermoML archive (doi:10.1016/j.fluid.2016.05.032).

Structures are written as SMILES. Numbers after ± are expanded uncertainties.

For the data set the following is noted: Liquid, Closed cell (Static) method.

Usually vapor or sublimation pressure stands for the equilibrium pressure above the liquid or solid. `Cc1ccccc1C` [1,2-dimethylbenzene]: the “vapor or sublimation pressure” value is, setting by setting: (345.15 K) 9.182 ± 0.061 kPa; (350.15 K) 11.27 ± 0.074 kPa; (355.15 K) 13.73 ± 0.081 kPa; (360.15 K) 16.62 ± 0.095 kPa; (365.15 K) 20 ± 0.11 kPa.
With `Cc1cccc(C)c1` [1,3-dimethylbenzene], the “vapor or sublimation pressure” value turned out to be 11 ± 0.058 kPa (345.15 K); 13.44 ± 0.07 kPa (350.15 K); 16.32 ± 0.083 kPa (355.15 K); 19.68 ± 0.098 kPa (360.15 K); 23.59 ± 0.1 kPa (365.15 K).
With `Cc1ccc(C)cc1` [1,4-dimethylbenzene], the “vapor or sublimation pressure” value by setting is: (345.15 K) 11.39 ± 0.061 kPa; (350.15 K) 13.9 ± 0.071 kPa; (355.15 K) 16.85 ± 0.085 kPa; (360.15 K) 20.3 ± 0.095 kPa; (365.15 K) 24.3 ± 0.1 kPa.
Take `CC(O)COC(C)COC(C)CO` (stereo not given) [2-[2-(2-hydroxypropoxy)propoxy]-1-propanol]: the “vapor or sublimation pressure” value (350.15 K) is listed as 0.039 ± 0.006 kPa; the “vapor or sublimation pressure” value (357.15 K) turned out to be 0.063 ± 0.016 kPa; the “vapor or sublimation pressure” value (364.15 K) is on record as 0.098 ± 0.009 kPa; the “vapor or sublimation pressure” value (371.15 K) is 0.15 ± 0.018 kPa; the “vapor or sublimation pressure” value (378.15 K) stood at 0.224 ± 0.009 kPa.
Consider `CCc1ccccc1` [ethylbenzene], for which the “vapor or sublimation pressure” value by setting is: (320.15 K) 4.076 ± 0.038 kPa; (326.15 K) 5.41 ± 0.047 kPa; (332.15 K) 7.093 ± 0.052 kPa; (338.15 K) 9.194 ± 0.058 kPa; (344.15 K) 11.79 ± 0.071 kPa.
In the case of `Cc1ccccc1` [toluene], the “vapor or sublimation pressure” value was determined as 8.622 ± 0.044 kPa (315.15 K); 10.77 ± 0.052 kPa (320.15 K); 13.34 ± 0.059 kPa (325.15 K); 16.4 ± 0.071 kPa (330.15 K); 20.02 ± 0.08 kPa (335.15 K).
